Data published in patent US20100093760A1, “METHODS FOR IDENTIFYING COMPOUNDS THAT MODULATE CELL SIGNALING AND METHODS EMPLOYING SUCH COMPOUNDS” (The General Hospital Corporation, priority 2006, published 2010).
“Also recorded” adds a separate entry of the source.

Assays:
[1] = test system: TGF-β1-mediated activation of SMAD2; assay: TGF-β1-mediated SMAD2 phosphorylation in PASMCs; type: cell-based, murine
Description: Wild-type and BMPR-II-deficient PASMC were isolated as previously described (Yu et al., J. Biol. Chem. 280:24443-24450, 2005), and cultured in RPMI medium (Invitrogen) supplemented with 10% FBS. C2C12 cells (American Type Culture Collection, Manassas, Va.) were cultured in DMEM supplemented with glutamine and 10% FBS. HepG2 cells and Hep3B cells (ATCC) were cultured in Minimal Essential Alpha Medium with L-glutamine (α-MEM, Invitrogen) containing 10% FBS. For studies of SMAD activation in vitro, PASMC were incubated in 0.5% FCS RPMI for 24 hours, followed by preincubation with drug compounds, noggin, or vehicle for 30 minutes, followed the addition of recombinant BMPs 2, 4, 6, or 7, or TGF-β1 or Activin A (R&D Systems, Minneapolis, Minn.) for 30 minutes.
(§1) Cell extracts or tissues were mechanically homogenized in SDS-lysis buffer (62.5 mM Tris-HCl (pH 6.8), 2% SDS, 10% glycerol, 50 mM DTT, 0.01% bromophenol blue); separated by SDS-PAGE; immunoblotted with anti-phospho-SMAD1/5/8, anti-phospho-SMAD2 (Cell Signaling, Beverly, Mass.), or anti-α-tubulin (Upstate/Millipore, Billerica, Mass.) Abs; and visualized using ECL Plus (GE Healthcare, Piscataway, N.J.). Levels of immunoreactive proteins were quantitated by ImageQuant software on a Storm phosphorimager (GE Healthcare).

caALK3 = biological target: T1, caALK3 (Homo sapiens, UniProt P36894, Q233D); assay: Constitutively-active ALK3 transfection: phospho-SMAD1/5/8 immunoblot and Id1 promoter (BRE-Luc); type: cell-based; conditions: BMPR-II-deficient PASMCs
T1 construct: expressed in transfected cells; host or cells: murine PASMCs (BMPR-II-deficient), transient transfection
T1 sequence (P36894 24-532 Q233D): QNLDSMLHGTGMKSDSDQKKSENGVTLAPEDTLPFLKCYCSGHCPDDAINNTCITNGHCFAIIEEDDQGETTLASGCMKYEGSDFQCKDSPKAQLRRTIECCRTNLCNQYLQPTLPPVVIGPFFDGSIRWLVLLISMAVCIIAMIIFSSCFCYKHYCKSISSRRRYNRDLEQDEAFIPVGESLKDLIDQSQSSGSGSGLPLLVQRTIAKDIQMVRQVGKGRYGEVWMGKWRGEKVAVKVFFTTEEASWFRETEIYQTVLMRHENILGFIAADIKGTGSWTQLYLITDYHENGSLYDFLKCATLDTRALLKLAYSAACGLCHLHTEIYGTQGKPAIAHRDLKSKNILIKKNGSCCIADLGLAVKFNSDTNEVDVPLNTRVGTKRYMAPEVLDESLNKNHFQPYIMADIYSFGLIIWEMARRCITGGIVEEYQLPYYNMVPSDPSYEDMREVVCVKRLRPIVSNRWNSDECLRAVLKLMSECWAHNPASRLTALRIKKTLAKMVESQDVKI
Description: as §1
Murine PASMCs grown to 50% confluence in 6-well plates were transiently transfected with 0.3 μg Id1 promoter luciferase reporter construct (BRE-Luc, Dr. Peter ten Dijke, Leiden University Medical Center, Netherlands (Korchynskyi et al., J. Biol. Chem. 277:4883-4891, 2002)) in combination with 0.6 μg plasmids expressing constitutively-active forms of BMP type I receptors (caALK2, caALK3, or caALK6, kindly provided by Dr. Kohei Miyazono, University of Tokyo, Japan (Fujii et al., Mol. Biol. Cell 10:3801-3813, 1999)), using Fugene6 (Roche). […] Cell extracts were harvested, and relative promoter activity quantitated by the ratio of firefly to Renilla luciferase activity using the dual luciferase assay kit (Promega). […] Hepcidin promoter activity was measured by luciferase assay as above.

C2C12 cells = assay: BMP-induced alkaline phosphatase activity (osteogenic differentiation) in C2C12 cells; type: cell-based
Description: C2C12 cells were seeded into 96 well plates at 2000 cells per well in DMEM supplemented with 2% FBS. Wells were treated in quadruplicate with BMP ligands and Compound C/Dorsomorphin or vehicle. Cells were harvested after 5 days in culture with 50 μl Tris buffered saline/1% Triton X-100. Lysates were added to p-nitro-phenylphosphate reagent in 96-well plates (Sigma) for 1 hour, and alkaline phosphatase activity expressed as absorbance at 405 nm. Cell viability and quantity were measured by Cell-titer Glo (Promega) and binding of nuclear dye CyQuant (Invitrogen), respectively, using replicate wells treated identically to those used for alkaline phosphatase measurements.

[2] = test system: hepatic SMAD1/5/8 phosphorylation; assay: Iron-dextran challenge: hepatic SMAD1/5/8 phosphorylation in adult zebrafish; type: in vivo; parameters: dose or concentration left out as unconfirmed; conditions: co-injection with iron-dextran, intraperitoneal, 1 hour

c1cc(-c2cnn3cc(-c4ccc(OCCN5CCCCC5)cc4)cnc23)ccn1 [Compound C/Dorsomorphin]
effect on the TGF-β signaling pathway ([1]; FIG. 7): does not affect | effect on TGF-β1-mediated activation of SMAD2 ([1]; PASMCs, TGF-β1 0.5 ng/ml, 0.1-20 μM, 30 minutes): did not inhibit | effect on caALK3-induced increase in phospho-SMAD1/5/8 (caALK3; 10 μM, immunoblot): inhibited | effect on caALK3-mediated Id1 promoter activity (BRE-Luc) (caALK3; 0.25-10 μM): inhibited; also recorded: decreased | inhibition of osteogenic differentiation compared with noggin (C2C12 cells; 4 μM vs noggin 100 ng/ml): more potent than that seen with pretreatment of cells with 100 ng/ml of noggin | effect on BMP4- or BMP6-induced alkaline phosphatase activity (osteogenic differentiation) (C2C12 cells; 4 μM, 5 days): completely inhibits; also recorded: almost completely abolished; also recorded: inhibited | reduction of hepatic SMAD1/5/8 phosphorylation vs iron-dextran and vehicle [2]: ~3 fold
